Source: US20230372263A1, “METHODS AND COMPOSITIONS FOR TREATING AMYOTROPHIC LATERAL SCLEROSIS” (Amylyx Pharmaceuticals, Inc., priority 2022, published 2023)
Where two headings read alike, the source gives them in different places.

Assay: Phase I single dose oral AMX0035 fasted/fed plasma pharmacokinetics and food effect (Protocol A35-002)
Format: in vivo, human
Settings: for Frel AUC(0-inf) / Frel AUC(0-last) / Frel Cmax: fed relative to fasted
Description: • Protocol AMX3500: sparse sampling in 87 subjects with ALS. Approximately 2 samples are collected for each subject, 1 or 4 hours post dose following 12 and 24 weeks of treatment. • Protocol A35-002: rich sampling in 14 healthy adults. Approximately 21 samples are collected over 24 hours for each subject on two occasions, once following a high fat meal and the other under fasting conditions.
A total of 14 healthy subjects were enrolled in order to have no fewer than 12 subjects complete. A predefined mix of gender was selected.
Each study period followed the same study design (FIG. 1). Subjects were screened for inclusion in the study up to 28 days before dosing. Subjects were admitted to the clinical unit during Study Day −2 for Period 1 and Day −1 for Period 2 and were dosed in the morning of Day 1. On the night prior to Period 1 the subjects in the fasted/fed or fed/fasted sequence were fasted for a minimum of 10 h prior to dosing.
The solution was stirred until the powder was mostly dissolved.
Any departures from the intended regimen were recorded in the eCRFs. All dose administrations were performed in the study center under the supervision of appropriately trained staff.
Subjects were provided with a light snack and were then fasted from all food and drink (except water) until the following morning, when they were provided with a high-fat breakfast. The breakfast was consumed over a maximum period of 25 min, and dosing occurred 30 min after the start of breakfast. Subjects were encouraged to eat their meal evenly over the 25 min period. For this trial the subject was deemed compliant if they consumed >80% of the high-fat standard breakfast.
The subjects in the 24-h baseline and in the fasted condition Period remained fasted up to 4 h post-dose and were offered a standardized meal to be taken between 4.00 and 5.00 h post-dose. Subjects in the fed condition were fasted overnight and received a high-fat standard breakfast 30 minutes pre-dose and then remained fasted for 4.00 to 5.00 h post-dose when they received a standardized meal.
Venous blood samples were withdrawn via an indwelling cannula or by venipuncture according to the time schedule presented in Table 5 Table, Table 6, and Table 7.
Blood samples of approximately 4 mL were collected into 4 mL BD Vacutainer Plastic K2EDTA Tubes with Lavender Hemogard Closure, and was gently inverted approximately 8 times. The tubes were then immediately stored on ice and processed within 60 min of collection by centrifugation at 1500 g for 10 min at 2 to 8° C. The resultant plasma was separated equally into 2 aliquots and transferred to 2 mL appropriately labelled primary and backup polypropylene cryovials.
Actual elapsed time from dosing was to be used for the final plasma PK parameter calculations after database lock.

[1] = single dose AMX0035 fasted, Geometric Mean
[2] = single dose AMX0035 fasted, Max
[3] = single dose AMX0035 fasted, Median
[4] = single dose AMX0035 fasted, Min
[5] = single dose AMX0035 fed, Geometric Mean
[6] = single dose AMX0035 fed, Median

O=C(O)Cc1ccccc1 [PAA, phenylacetate]
T1/2 (Table 1: fasted, geometric mean (CV%), terminal half-life): 48.8 min | Tmax (Table 1: fasted, median (range)): 150 min | AUC(0-inf) (both sexes, human, in vivo, Table 1: fasted, geometric mean (CV%), read-out: AUC(0-inf)): 83400 ng·h/mL | half-life (both sexes, human, in vivo, Table 1: fasted, geometric mean (CV%), terminal half-life, read-out: T1/2 (converted)): 48.6 min | half-life (both sexes, human, in vivo, fasted, read-out: elimination half-lives (range)): 41.4 to 57 min | half-life (both sexes, human, in vivo, fed, read-out: elimination half-lives (range)): 36 to 62.4 min | Cmax (both sexes, human, in vivo, po, Table 1: single oral dose ALBRIOZA, healthy subjects, fasted, geometric mean (CV%), read-out: Cmax): 26400 ng/mL | AUC(0-inf) (both sexes, human, in vivo, po, single oral AMX0035, Fasted (N = 13), healthy subjects, PK analysis subset, read-out: AUC(0-inf), Adj Geo Mean): 84800 ng·h/mL | AUC(0-t) (both sexes, human, in vivo, po, single oral AMX0035, Fasted (N = 13), healthy subjects, PK analysis subset, read-out: AUC(0-last), Adj Geo Mean): 83200 ng·h/mL | Cmax (both sexes, human, in vivo, po, single oral AMX0035, Fasted (N = 13), healthy subjects, PK analysis subset, read-out: Cmax, Adj Geo Mean): 26600 ng/mL | AUC(0-inf) (both sexes, human, in vivo, po, single oral AMX0035, Fed (N = 13), healthy subjects, PK analysis subset, read-out: AUC(0-inf), Adj Geo Mean): 59800 ng·h/mL | AUC(0-t) (both sexes, human, in vivo, po, single oral AMX0035, Fed (N = 13), healthy subjects, PK analysis subset, read-out: AUC(0-last), Adj Geo Mean): 58200 ng·h/mL | Cmax (both sexes, human, in vivo, po, single oral AMX0035, Fed (N = 13), healthy subjects, PK analysis subset, read-out: Cmax, Adj Geo Mean): 16100 ng/mL | Cmax (both sexes, human, in vivo, single dose AMX0035, healthy subjects, fasting, read-out: mean Cmax): 26400 ng/mL | AUC(0-inf) (both sexes, human, in vivo, single dose AMX0035 fasted, Geometric Mean, read-out: AUC(0-inf)): 83400 ng·h/mL | AUC(0-t) (both sexes, human, in vivo, single dose AMX0035 fasted, Geometric Mean, read-out: AUC(0-last)): 81800 ng·h/mL | Cmax (both sexes, human, in vivo, single dose AMX0035 fasted, Geometric Mean, read-out: Cmax): 26400 ng/mL | half-life (both sexes, human, in vivo, single dose AMX0035 fasted, Geometric Mean, read-out: T1/2 (converted)): 48.8 min | AUC(0-inf) (both sexes, human, in vivo, single dose AMX0035 fasted, Median, read-out: AUC(0-inf)): 80700 ng·h/mL | AUC(0-t) (both sexes, human, in vivo, single dose AMX0035 fasted, Median, read-out: AUC(0-last)): 79300 ng·h/mL | Cmax (both sexes, human, in vivo, single dose AMX0035 fasted, Median, read-out: Cmax): 27700 ng/mL | half-life (both sexes, human, in vivo, single dose AMX0035 fasted, Median, read-out: T1/2 (converted)): 50 min | AUC(0-inf) (both sexes, human, in vivo, single dose AMX0035 fed, Geometric Mean, read-out: AUC(0-inf)): 58300 ng·h/mL | AUC(0-t) (both sexes, human, in vivo, single dose AMX0035 fed, Geometric Mean, read-out: AUC(0-last)): 56700 ng·h/mL | Cmax (both sexes, human, in vivo, single dose AMX0035 fed, Geometric Mean, read-out: Cmax): 15900 ng/mL | half-life (both sexes, human, in vivo, single dose AMX0035 fed, Geometric Mean, read-out: T1/2 (converted)): 46.8 min | AUC(0-inf) (both sexes, human, in vivo, single dose AMX0035 fed, Median, read-out: AUC(0-inf)): 54500 ng·h/mL | AUC(0-t) (both sexes, human, in vivo, single dose AMX0035 fed, Median, read-out: AUC(0-last)): 53100 ng·h/mL | Cmax (both sexes, human, in vivo, single dose AMX0035 fed, Median, read-out: Cmax): 16000 ng/mL | half-life (both sexes, human, in vivo, single dose AMX0035 fed, Median, read-out: T1/2 (converted)): 47 min | Tmax (both sexes, human, in vivo, non parametric analysis, PK analysis subset, Fasted, read-out: Tmax Median): 150 min | peak exposure to metabolite as % of that for parent (fasted): approximately 14% | time from which plasma concentrations were evident (fasted): 0.25 h | total exposure to metabolite based on AUC(0-inf) as % of that for parent (fasted): approximately 35% | peak exposure to metabolite as % of that for parent (fed): approximately 34% | total exposure to metabolite based on AUC(0-inf) as % of that for parent (fed): approximately 48% | Frel AUC(0-inf) (Geometric Mean): 70.606% | Frel AUC(0-last) (Geometric Mean): 70.024% | Frel Cmax (Geometric Mean): 60.480% | Frel AUC(0-inf) (Max): 91.45% | Frel AUC(0-last) (Max): 91.27% | Frel Cmax (Max): 86.29% | Frel AUC(0-inf) (Median): 70.563% | Frel AUC(0-last) (Median): 69.952% | Frel Cmax (Median): 58.065% | Frel AUC(0-inf) (Min): 58.16% | Frel AUC(0-last) (Min): 57.31% | Frel Cmax (Min): 45.73% | Tmax Median (non parametric analysis, PK analysis subset, Fed): 150 min | AUCextrap [1]: 1.779% | Lambda-z [1]: 0.8527 h⁻¹ | AUC(0-inf) [2]: 142000 ng·h/mL | AUC(0-last) [2]: 141000 ng·h/mL | AUCextrap [2]: 3.18% | Lambda-z [2]: 0.9999 h⁻¹ | T1/2 [2]: 57 min | Tmax [2]: 210 min | AUCextrap [3]: 1.963% | Lambda-z [3]: 0.8310 h⁻¹ | Tmax [3]: 150 min | AUC(0-inf) [4]: 45200 ng·h/mL | AUC(0-last) [4]: 43800 ng·h/mL | AUCextrap [4]: 1.06% | Lambda-z [4]: 0.7287 h⁻¹ | T1/2 [4]: 41.4 min | Tmax [4]: 90 min | AUCextrap [5]: 2.485% | Lambda-z [5]: 0.8886 h⁻¹ | AUC(0-inf) (single dose AMX0035 fed, Max): 130000 ng·h/mL | AUC(0-last) (single dose AMX0035 fed, Max): 128000 ng·h/mL | AUCextrap (single dose AMX0035 fed, Max): 4.13% | Lambda-z (single dose AMX0035 fed, Max): 1.1486 h⁻¹ | T1/2 (single dose AMX0035 fed, Max): 62.4 min | Tmax (single dose AMX0035 fed, Max): 270 min | AUCextrap [6]: 2.680% | Lambda-z [6]: 0.8899 h⁻¹ | Tmax [6]: 150 min | AUC(0-inf) (single dose AMX0035 fed, Min): 31900 ng·h/mL | AUC(0-last) (single dose AMX0035 fed, Min): 30600 ng·h/mL | AUCextrap (single dose AMX0035 fed, Min): 1.26% | Lambda-z (single dose AMX0035 fed, Min): 0.6696 h⁻¹ | T1/2 (single dose AMX0035 fed, Min): 36 min | Tmax (single dose AMX0035 fed, Min): 120 min | higher exposure in females compared to males (single oral dose, fed and fasted): ~31%
